What was measured:
[1] = Iron absorption from fortified corn flakes with milk in women, from radioactivity in circulating erythrocytes; type: in vivo; settings: 30 g corn flakes with 150 ml milk, percent iron absorbed normalized by reference dose of ferrous ascorbate
Experimental: An experiment was conducted to validate the effectiveness of combining reduced iron with a non-ferric EDTA salt. Six sources of iron were compared in a study conducted on women.
The study was performed using a serving of corn flakes, approximately 30 g, with the addition of 150 ml lactose free UHT-treated 2% fat cow's milk. The percentage of iron absorbed by the test subjects was determined from radioactivity present in the circulating erythrocytes. Labeled ^59FeCl3 was used as a tracer in the reference dose of ferrous ascorbate and in the treatments containing FeSO4. Labeled ^55FeCl3 was used as a tracer in the treatments containing elemental reduced iron. The percentage of iron absorbed by the test subjects was normalized by the reference dose of ferrous ascorbate.

[2] = Rat hemoglobin repletion method: iron bioavailability of iron phosphate alone or with Na2EDTA versus FeSO4 in rat diet/Corn Flakes; type: in vivo, Sprague Dawley rats; settings: rats; for Percent Absorption Relative to FeSO4: calculated from the slopes; for Slope: hemoglobin gain versus diet iron concentration, common intercept, letters mark estimates that do not differ (P < .10)
Experimental: An additional study was performed to determine the bioavailability of iron phosphate when combined with Na2EDTA. The relative iron bioavailability of the various iron containing compositions in a ready-to-eat cereal product was assayed using a widely accepted method, commonly referred to as the rat hemoglobin repletion method, (modified AOAC method for assessment of relative iron bioavailability), see Williams, S. ed. Official methods of analysis of the Association of Official Analytical Chemists, 14th ed. Arlington, Va. AOAC, 1984; Fritz, J. C. et al., Collaborative Study of rat hemoglobin repletion test for bioavailability of iron, AOAC 1974, 57:513-517. Relative bioavailability of the various iron:EDTA composition was carried out in a series of separate experiments. In each of these experiments, ferrous sulfate was used as the standard or control compound.
Sprague Dawley rats, individually housed in temperature and light controlled units, were fed an iron deficient diet obtained from Harland Tekland Laboratories for 24 days. After this iron depletion phase, the rats were weighed and blood was drawn to test for baseline hemoglobin concentrations. These anemic animals, with hemoglobin levels between […], were then randomly assigned to the control and test groups. Ferrous sulfate, iron phosphate, and iron phosphate with Na2EDTA were separately added to the test diets to achieve concentrations of 6 and 18 and 24 mg iron/kg diet. These diets were then fed to groups of ten animals, ad libitum, for 14 days. Iron levels in the diets, were verified by atomic absorption spectrometry (Blin et al., J. Assoc. Off. Anal. Chem. 1977, 60:1170-1174). After the 14-day test period, hemoglobin concentrations were determined for all animals.
The iron bioavailability of each iron source, assayed relative to ferrous sulfate, was calculated using the slope ratio procedure by comparing the gain in hemoglobin concentration with the iron concentration in the diet (Finney, D. J., Statistical methods in biological assay.2nd ed. 1964; Amine et L., Biological assessment of available iron in food products, J. Agric. Food Chem. 1974, 22:470-476). […] The percent absorption relative to FeSO4 was calculated from the slopes determined from each experiment.
An additional test was conducted feeding rats a purified rat diet/Corn Flakes® fortified with iron phosphate either alone or in combination with Na2EDTA or mixtures of both. […] As described above the bioavailability was determined by assaying the relative change in hemoglobin in rats fed with the various fortified diets with the recommended daily allowance for humans of iron content (RDA).
Three test diets were evaluated: […]

Normalized Absorption ([1]; 50% Daily Value iron)	Percent Absorption Relative to FeSO4 [2]	Slope [2]	Normalized Absorption ([1]; 25% Daily Value iron)	SMILES
6.9%	–	–	–	O=S(=O)([O-])[O-].[Fe+2] [(b) FeSO4, FeSO4]
–	33%	0.10 (a)	–	O=P([O-])([O-])[O-].[Fe+3] [B) FePO4, FePO4]
–	100%	0.30 (c)	11.4%	O=S(=O)([O-])[O-].[Fe+2] [(a) FeSO4, FeSO4]

From US20020012721A1, “Cooked cereal ingredient-containing products fortified with non-ferric edta and insoluble iron compositions and methods for use” (priority 1998, published 2002)
